Results reported in PMC4767605 (Cancer chemotherapy and pharmacology, 2016).

How the values were obtained:
[1] = system: breast cancer (MDA-MB-231); experiment: Breast cancer xenograft in mice, combination with paclitaxel; format: in vivo; conditions: ASP9853 in combination with paclitaxel; MDA-MB-231 xenograft; data not shown
prostate cancer (PC-3) = experiment: Prostate cancer xenograft in mice, combination with paclitaxel; format: in vivo; conditions: ASP9853 in combination with paclitaxel; PC-3 xenograft; data not shown
[2] = system: human NSCLC cell line Calu-6; conditions: ASP9853 alone, 100 mg/kg oral, twice daily
advanced solid tumors = conditions: ASP9853 + docetaxel

Which results are given for `O.O.O=C(/C=C/c1ccc(Cl)cc1)N[C@@H](Cc1ccccn1)C(=O)NCC(=O)N1CCC(Oc2cc(C(F)(F)F)ncn2)CC1` [ASP9853, (2E)-3-(4-chlorophenyl)-N-[(1S)-2-oxo-2-{[2-oxo-2-(4-{[6-(trifluoromethyl)-4-pyrimidinyl]oxy}-1-piperidinyl)ethyl]amino}-1-(2-pyridinylmethyl)ethyl]acrylamide dehydrate]?
Tumor growth inhibition [1]: greater tumor growth inhibition; Tumor growth inhibition (prostate cancer (PC-3)): greater tumor growth inhibition; Antitumor activity in the Calu-6 NSCLC xenograft model [2]: no antitumor activity; Duration of stable disease, mean (SD) (advanced solid tumors): 49.4 (47.2) days; Duration of stable disease, median [range] (advanced solid tumors): 78 [1–133] days; Patients with best overall response of stable disease (advanced solid tumors; Eight patients): 38.1%; Objective radiographic responses (advanced solid tumors; eighteen patients evaluable): no objective radiographic responses were observed
